From patent US20260174856A1, “USE OF HETEROARYLOXYNAPHTHALENE COMPOUND” (SHANGHAI RUNSHI MEDICAL TECHNOLOGY CO., LTD, priority 2022, published 2026)

Assays:
[1] = Water sorption and desorption experiment (DVS hygroscopicity); type: physicochemical; conditions: relative humidity 40%-80%, 25° C.
Protocol: Instrument: DVS Intrinsic Plus (SMS, UK).
Method: a sample was placed in a tared sample basket, the weight of the sample was automatically measured, and the sample was analyzed according to the parameters in the table below.
The samples obtained in Example 2 and Example 3 were investigated for sorption and desorption of moisture under the relative humidity of 40%-80% at 25° C. using a dynamic vapor sorption (DVS) instrument to determine the hygroscopicity of various salt forms.

[2] = Solubility experiment; conditions: for Solubility: deionized water, 25° C.
[3] = Solid stability experiment; type: physicochemical; conditions: for Crystalline form: XRPD, initial crystalline form I
Protocol: The sample obtained in Example 2 was investigated for physical stability and chemical stability under the conditions of 40° C./75% RH (open) and 60° C. (sealed) for 7 days, and for physical stability under the conditions of room temperature/92.5% RH (open) for 10 days.
Note: the “/” indicates undetected; the crystalline form results were obtained using the X-ray powder diffraction method.

[4] = Grinding stability experiment; type: physicochemical; conditions: XRPD
[5] = system: esophageal squamous cell carcinoma; experiment: Phase I clinical trial, effectiveness evaluation; type: in vivo, human
Source text: ORR: the percentage of subjects with complete remission (CR) and partial remission (PR) among all enrolled subjects from the date of the first dose.
DCR: defined as the percentage of subjects with CR, PR, or stable disease (SD) among all enrolled subjects from the date of the first dose.
PR: refers to partial remission, meaning that the sum of the diameters of target lesions has reduced by at least 30% compared to the baseline level.
(§1) Drug: Compound B, tablets.
(§2) 1.1 Inclusion criteria: The main criteria include: (1) an age of 18-70 years old (including 18 years old and 70 years old) when signing an informed consent form; (2) patients with histopathologically or cytologically confirmed unresectable locally advanced or metastatic solid tumors, who have failed or are intolerant to standard treatments, or have no standard treatment regimens available as options; (3) the presence of at least one measurable lesion meeting RECIST v1.1 definition; (4) ECOG performance status (PS) score: 0-1; and so on.
(§3) (1) Dose escalation stage: initial doses: 1 mg, 2 mg, 4 mg, 6 mg, 9 mg, 12 mg, 16 mg, 20 mg, and 25 mg, administered orally once daily. After 7-days single administration stage, 28-days multiple administration stage began (continuous administration, with every 28 days constituting one cycle, until progressive disease or intolerable toxic reactions occurred). The subjects who had completed the treatment and observation for the 7-days single administration stage and the first cycle of the 28-days multiple administration stage, and who had acquired clinical benefit and could tolerate the drug treatment, could enter an extended treatment period based on their willingness. In the extended treatment period, every 4 weeks constituted one cycle.
(§4) (2) Dose expansion stage: 4 mg and 6 mg, administered orally once daily. For the continuous administration group, every 4 weeks constituted 1 cycle; for the group of 3-week administration and then 1-week interruption, every 4 weeks constituted one cycle; for the group of 2-week administration and then 1-week interruption, every 3 weeks constituted 1 cycle.
(§5) 1.3 Assessment of results: (1) Effectiveness evaluation: In this study, for the dose escalation stage, efficacy evaluation and data analysis were performed at the 4th week, 8th week and 12th week after the first day of the 28-days multiple administration stage and then every 8 weeks thereafter. […]

[6] = Phase I clinical trial, safety evaluation; type: in vivo, human; conditions: monotherapy, patients with solid tumors
Source text: as §1, §2, §3, §4, §5

[7] = system: pulmonary squamous cell carcinoma; experiment: Phase I clinical trial, effectiveness evaluation; type: in vivo, human
Source text: as §1, §2, §3, §4
(§6) 1.3 Assessment of results: (1) Effectiveness evaluation: In this study, for the dose escalation stage, efficacy evaluation and data analysis were performed at the 4th week, 8th week and 12th week after the first day of the 28-days multiple administration stage and then every 8 weeks thereafter. For the dose expansion stage, efficacy evaluation on the group of 3-week administration and then 1-week interruption was performed at the 4th week, 8th week and 12th week after the first day of the 28-days multiple administration stage and then every 8 weeks thereafter; efficacy evaluation on the group of 2-week administration and then 1-week interruption was performed every 6 weeks after the first day of the 28-days multiple administration stage. The indicators of effectiveness include objective response rate (ORR), progression-free survival (PFS), overall survival (OS), disease control rate (DCR), and duration of response (DOR). (2) Safety evaluation: including evaluation of vital signs and physical examinations, electrocardiograms, ECOG PS scores, laboratory tests, adverse events, and the like.

[8] = system: nasopharyngeal squamous cell carcinoma; experiment: Phase I clinical trial, effectiveness evaluation; type: in vivo, human
Source text: as §1, §2, §3, §4, §6

[9] = 40° C./75% RH (open) for 7 days
[10] = of 41 patients with esophageal squamous cell carcinoma

Compound: Tartrate
- Hygroscopicity [1]: 2.86%

Compound: Phosphate
- Hygroscopicity [1]: 3.75%
- Solubility [2]: 3500 µg/mL

Compound: Maleate
- Hygroscopicity [1]: 0.81%
- Hygroscopicity (words) [1]: slightly hygroscopic
- Solubility [2]: 2000 µg/mL

Compound: Fumarate
- Hygroscopicity [1]: 2.11. %
- Solubility [2]: 1300 µg/mL

Compound: CNC(=O)c1cccc2cc(Oc3ccnc(NC(=O)c4ccc(N5C[C@@H](C)N[C@@H](C)C5)cc4)c3)ccc12 [Compound B]
- Purity [3, 9]: 99.86%
- Crystalline form [3, 9]: Not changed
- Chemical stability ([3]; 40° C./75% RH and 60° C. for 7 days): good chemical stability
- Physical stability of crystalline form I ([3]; 40° C./75% RH, 60° C. for 7 days, 92.5% RH for 10 days): good physical stability
- Purity ([3]; 60° C. (sealed) for 7 days): 99.85%
- Crystalline form ([3]; 60° C. (sealed) for 7 days): Not changed
- Purity ([3]; initial state, 0 day): 99.85%
- Crystalline form ([3]; room temperature/92.5% RH (open) for 10 days): Not changed
- Crystalline form I after grinding ([4]; mechanically ground after dropwise addition of organic solvent (methanol, ethanol, acetone, acetonitrile, ethyl acetate, etc.)): not changed
- Crystalline form I after grinding ([4]; mechanically ground using a mortar for 2 min): not changed
- Crystalline form I after grinding ([4]; mechanically ground using a mortar for 5 min): not changed
- Response as of the latest assessment ([5]; Subject S03008, 6 mg QD continuous, in the 18th treatment cycle): remains in PR
- Cases achieving PR [5, 10]: 6 cases
- Cases achieving SD [5, 10]: 21 cases
- Cases of SD showing target lesion reduction ([5]; of 41 patients with esophageal squamous cell carcinoma (21 SD)): 11 cases
- Common (≥10%) adverse effects [6]: proteinuria, hypertension, hypoalbuminemia, decreased platelet count, decreased leukocyte count, increased alanine aminotransferase, increased aspartate aminotransferase, hyperuricemia, rash, anemia and fatigue
- Overall safety [6]: overall safe and controllable
- Severity of most adverse effects [6]: grade 2 or below
- Target lesion reduction among SD cases ([7]; 4 SD cases of 5 patients with pulmonary squamous cell carcinoma): all of which showed target lesion reduction
- Maximum reduction in the target lesion ([7]; Subject S09009, stage IV, 4 mg QD continuous): 10.7%
- Cases achieving SD ([7]; of 5 patients with pulmonary squamous cell carcinoma): 4 cases
- Target lesion reduction in SD case ([8]; 1 SD case of 2 patients with nasopharyngeal squamous cell carcinoma): also showed target lesion reduction
- Maximum reduction in the target lesion ([8]; Subject S01001, stage IV, 2 mg (dose escalation) QD): 7.9%
- Cases achieving SD ([8]; of 2 patients with nasopharyngeal squamous cell carcinoma): 1 case
- Hygroscopicity [1]: 0.65%
- Hygroscopicity (words) [1]: slightly hygroscopic
- Solubility in buffer compared to compound A ([2]; Na2HPO4-citric acid buffer (pH 4.6)): better solubility in the buffer compared to compound A
